The values below come from patent US20140303092A1 (CHIMERIX, INC., priority 2011, published 2014).

SMILES strings stand for the structures. pEC50: −log10 of the molar value.

One series relates to HHV-6(B). Nature of the series: In vitro antiviral activity in cell culture, HHV-6(B). The settings on record: Human betaherpesvirus 6, B-cell. The class given is cell-based, human herpesvirus 6.
The nature of series [1]: Study HDP-CDV-201: GVHD reported as AE, weekly stage and grade, logistic regression versus dose. Also on record: species or system human (HSCT recipients). The following applies: human, in vivo. On the procedure: Because of the increased frequency of reports of acute GVHD in the BIW Cohorts of Study HDP-CDV-201, an in-depth analysis of reported GVHD was conducted. This analysis includes data from the following sources: Adverse events as reported in the eCRF, including GVHD and GI events; Weekly GVHD assessments (by stage, organ, and grade) as reported by the investigators on the GVHD module of the eCRF. […]
For all subjects, the sites were instructed to record the presence or absence of GVHD, and stage and grade of GVHD, if present, at each visit on a separate eCRF page. […] Stage and grade of GVHD were evaluated per the NIH consensus guidelines (Przepiorka D, et al. Consensus conference on acute GVHD grading. Bone Marrow Transplant. 1995; 15(6): 825-828), which focus on the intensity of symptoms or laboratory abnormalities associated with GVHD (for example, the staging of GVHD of the intestine is based on the volume of diarrhea). […]

For `CCCCCCCCCCCCCCCCOCCCOP(=O)(O)COC(CO)Cn1ccc(N)nc1=O` (centres unmarked) [HDP-CDV], the pEC50 (in general, −log10 of the EC50, conventionally taken in molar units) with HHV-6(B) is 8.15. Also, the “overall frequency of GVHD” value in series [1] fell in the range of 44 to 59%.
